Experiments:
Assay type in all cases: cell-based
tau inclusions [1] = assay: co-expression of fluorescent-tagged tau inclusions with mCherry-tagged synthetic peptide sequences; probability of cells containing a tau inclusion; settings: at different concentrations of co-expressed peptide-mCherry fusion; FIGS. 2A-2K
Protocol: Various peptide sequences were tested by co-expressing fluorescent-tagged tau inclusions with mCherry-tagged synthetic peptide sequences, and quantifying a probability of cells containing a tau inclusion at different synthetic peptide concentrations.

tau inclusions [2] = assay: as above; settings: cells expressing peptide-mCherry fusion; FIGS. 2H, 2J, 2K
[3] = tested on: tau aggregate-containing cells (strain DS18); assay: curing of tau aggregates in colonies of tau aggregate-containing cells expressing mCherry or SubF-mCherry; settings: expressed for a week, passaged at low density, imaged after 7 days, 14 fields of view; representative field FIGS. 3A-3B
Protocol: FIGS. 3A-3B are images of representative fields of view of mCherry (3A) or SubF-mCherry (3B) in tau aggregate-containing cell colonies.
As an example of this, mCherry or SubF-mCherry were expressed in tau aggregate-containing cells (strain DS18) for a week. Cells were then passaged into a new dish at low density. After 7 days, 14 fields of view were imaged for each condition, and the fraction of colonies cured of tau aggregates was determined.

| Molecule | probability of cells containing a tau inclusion (tau inclusions [1]) | tau-negative aggregates (aggregates formed absent the presence of tau) (tau inclusions [2]) | colonies with / cured of tau aggregates [3] |
| --- | --- | --- | --- |
| CK2 (SDSDS) (ASSSDSDSSSSSSSSSSSSSSSSSSSSSSSSSSSSSSSSSSSSSSSSSSSSA) [#11, 14, mCherry-tagged] | reduces tau inclusion | without forming tau-negative aggregates |  |
| S52 (Pure Polyserine) [#8] | no decrease in tau inclusions was seen | tau-negative aggregates were noted |  |
| SR Kinase (SRSRS) (ARSRSRSSSSSSSSSSSSSSSSSSSSSSSSSSSSSSSSSSSSSSSSSSSSSA) [#10, 13, mCherry-tagged] | reducing tau inclusions, relatively rapidly | tau-negative aggregates were noted |  |
| Sub F-mCherry: SubF sequence (KRKRR followed by 42 serines, SEQ ID NO. 3) fused to mCherry (KRKRRSSSSSSSSSSSSSSSSSSSSSSSSSSSSSSSSSSSSSSSSSS) |  |  | many of the 27 colonies lack aggregates in all cells |
| SubF Scramble (SSSRSSSSSKSSSSSSASSSSPSSASSSSSRSSSSPSSSSSSKSSSSSRSSS) [#9, 12, mCherry-tagged] | no reduction in tau inclusions was seen |  |  |
| Human SRRM2 Isoform 1 Fragment 26 (F26) WT (5, mCherry-tagged) SSSSSSGSSSSDSEGSSLPVQPEVALKRVPSPTPAPKEAVREGRPPEPTPAKRKRRSSSSSSSSSSSSSSSSSSSSSSSS | reduce the probability of tau inclusions to zero |  |  |
